“Also recorded” adds a separate entry of the source.
B1: ovalbumin (protein, UniProt P01012 2-386, looked up)
Ovalbumin: GSIGAASMEFCFDVFKELKVHHANENIFYCPIAIMSALAMVYLGAKDSTRTQINKVVRFDKLPGFGDSIEAQCGTSVNVHSSLRDILNQITKPNDVYSFSLASRLYAEERYPILPEYLQCVKELYRGGLEPINFQTAADQARELINSWVESQTNGIIRNVLQPSSVDSQTAMVLVNAIVFKGLWEKAFKDEDTQAMPFRVTEQESKPVQMMYQIGLFRVASMASEKMKILELPFASGTMSMLVLLPDEVSGLEQLESIINFEKLTEWTSSNVMEERKIKVYLPRMKMEEKYNLTSVLMAMGITDVFSSSANLSGISSAESLKISQAVHAAHAEINEAGREVVGSAEAGVDAASVSEEFRADHPFLFCIKHIATNAVLFFGRCVSP
notes: positive experimental control consisting of ovalbumin at 200 μg

What was measured:
[1] = tested on: RSV-B; experiment: Anti-RSV-B antibody titer before and after immunization in naive mice; type: in vivo; conditions: naive Balb/c mice, 6 or 1.5 μg G2Na equivalent i.m. on D0 and D14; after first immunization
Procedure: (§1) In order to test the immunogenicity of the G23a and G20a peptides, Balb/c mice were immunized with 6 or 1.5 μg of G2Na equivalent twice, on D0 and D14, intramuscularly.
(§2) Some mice were sensitized with RSV 20 days before the first immunization in order to make them seropositive with respect to RSV. A sample was taken from the mice before each immunization and the anti-G2Na, RSV-A and RSV-B antibody titers were determined.

[2] = tested on: RSV-A; experiment: Anti-RSV-A antibody titer before and after immunization in naive mice; type: in vivo, Balb/c mice
Procedure: as §1, §2

[3] = tested on: RSV-A; experiment: Protection against an RSV-A challenge in immunized mice (viral titer 5 days after challenge); type: in vivo, Balb/c mice; conditions: naive mice
Procedure: as §1
Ten days after the final immunization, the mice were challenged with 10^5 pfu/50 μl of RSV-A. The viral titer was measured 5 days after the challenge.

[4] = Determination of the IHS (immediate hypersensitivity) in guinea pigs; type: in vivo; conditions: for death of the guinea pigs (dead/tested): i.m. D0 and D8 with 20% adjuphos, i.v. booster D21
Procedure: Guinea pigs are immunized on D0 and D8 with the various molecules adjuvented with 20% (v/v) adjuphos, given i.m. On D21, a booster is given with the various molecules, nonadjuvented, by i.v. The death of the guinea pigs is then evaluated.
A positive experimental control consisting of ovalbumin at 200 μg is included for each molecule tested (cf. table 3 below).

Molecule | anti-RSV-B antibody response [1] | anti-RSV-A antibody response ([2]; naive Balb/c mice, 6 or 1.5 μg G2Na equivalent i.m. on D0 and D14, after first immunization) | immunogenicity in naive mice (summary) ([2]; naive mice) | protection of the pulmonary tract subsequent to challenge with RSV-A ([3]; challenge 10^5 pfu/50 μl RSV-A ten days after final immunization) | immunogenicity and protection compared with BBG2Na [3] | death of the guinea pigs (dead/tested) ([4]; 4 mg) | death of the guinea pigs (dead/tested) ([4]; 40 mg) | induction of IHS ([4]; guinea pigs, 6 animals tested) | death of the guinea pigs (dead/tested) ([4]; positive control T+, ovalbumin at 200 μg)
G20a: fragment of the G protein of RSV-A (140-190)-(144-158) of 69 amino acids, SEQ ID No.1 | develop anti-RSV-A and RSV-B antibody responses from the first immunization | develop anti-RSV-A and RSV-B antibody responses from the first immunization | immunogenic | induces protection of the pulmonary tract; also recorded: protective | comparable to those observed with BBG2Na | 0/6 | 0/6 | does not induce any IHS in 6/6 animals tested | 
B1 |  |  |  |  |  |  |  |  | 5/6

From patent publication US7309494B2, “Peptides of the respiratory syncytial virus (RSV) G protein and their use in a vaccine” (Pierre Fabre Medicament, priority 2001, dated 2007)
